Data taken from ChEMBL document CHEMBL1158562, “Design, synthesis and structure-activity relationships of novel biarylamine-based Met kinase inhibitors” (Bioorg Med Chem Lett, 2010).
pIC50: −log10 of the molar value. Calls of active or inactive are those of the source. No cut-off for these calls is given here.

What was measured:
[1] = Antiproliferative activity against human GTL16 cells after 72 hrs by tetrazolium-based colorimetric assay; settings: GTL 16, 72 h
[2] = target: Hepatocyte growth factor receptor (Homo sapiens, UniProt P08581); assay: Inhibition of GST-tagged human recombinant c-met N terminal domain expressed in Hi5 insect cells after 60 mins by liquid scintillation counting
[3] = Cmax in mouse at 50 mg/kg, po for 8 hrs; type: ADME, organism-based; design: dose 50 mg/kg, route oral; settings: in vivo
[4] = AUC (0 to 8 hrs) in mouse at 50 mg/kg, po; type: ADME, organism-based; design: time < 8 hr, dose 50 mg/kg, route oral; settings: plasma
[5] = system: GTL 16; assay: Antitumor activity against human GTL16 cells xenografted in anthymic mouse administered po qd for 15 days; type: functional, organism-based
[6] = system: GTL 16; assay: Antitumor activity against human GTL16 cells xenografted in anthymic mouse assessed as complete tumor stasis at 25 mg/kg, po qd for 15 days; type: functional, organism-based; design: dose 25 mg/kg
[7] = target: T1, Receptor-type tyrosine-protein kinase FLT3 (Homo sapiens, UniProt P36888); assay: Inhibition of FLT3
T1 sequence (P36888 whole entry): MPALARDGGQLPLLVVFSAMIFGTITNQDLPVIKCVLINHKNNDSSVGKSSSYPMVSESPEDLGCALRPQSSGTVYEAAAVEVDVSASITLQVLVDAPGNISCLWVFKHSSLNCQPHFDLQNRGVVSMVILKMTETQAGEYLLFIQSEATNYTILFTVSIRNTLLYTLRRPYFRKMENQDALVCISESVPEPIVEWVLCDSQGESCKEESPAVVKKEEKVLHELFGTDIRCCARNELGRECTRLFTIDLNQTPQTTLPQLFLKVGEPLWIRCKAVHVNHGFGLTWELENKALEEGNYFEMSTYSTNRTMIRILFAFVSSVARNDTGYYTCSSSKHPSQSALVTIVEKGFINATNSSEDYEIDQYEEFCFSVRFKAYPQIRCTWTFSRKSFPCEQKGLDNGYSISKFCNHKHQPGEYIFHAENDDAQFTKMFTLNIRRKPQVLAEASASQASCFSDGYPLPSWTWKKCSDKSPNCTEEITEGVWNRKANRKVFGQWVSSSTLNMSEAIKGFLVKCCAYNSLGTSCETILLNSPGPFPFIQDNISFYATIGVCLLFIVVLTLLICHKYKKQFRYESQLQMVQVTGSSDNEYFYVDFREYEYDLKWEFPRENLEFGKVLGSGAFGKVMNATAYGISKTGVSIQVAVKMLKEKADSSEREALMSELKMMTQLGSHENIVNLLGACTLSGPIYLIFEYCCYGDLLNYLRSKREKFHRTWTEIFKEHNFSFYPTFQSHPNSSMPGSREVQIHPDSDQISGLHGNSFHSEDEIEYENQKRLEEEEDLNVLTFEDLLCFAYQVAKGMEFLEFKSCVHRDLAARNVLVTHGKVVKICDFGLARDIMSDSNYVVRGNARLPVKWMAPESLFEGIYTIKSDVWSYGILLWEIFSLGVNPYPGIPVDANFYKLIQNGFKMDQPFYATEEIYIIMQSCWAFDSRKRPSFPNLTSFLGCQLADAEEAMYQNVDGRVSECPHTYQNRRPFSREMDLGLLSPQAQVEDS

[8] = target: High affinity nerve growth factor receptor (Homo sapiens, UniProt P04629); assay: Inhibition of TrkA
Sequence of High affinity nerve growth factor receptor (P04629 whole entry): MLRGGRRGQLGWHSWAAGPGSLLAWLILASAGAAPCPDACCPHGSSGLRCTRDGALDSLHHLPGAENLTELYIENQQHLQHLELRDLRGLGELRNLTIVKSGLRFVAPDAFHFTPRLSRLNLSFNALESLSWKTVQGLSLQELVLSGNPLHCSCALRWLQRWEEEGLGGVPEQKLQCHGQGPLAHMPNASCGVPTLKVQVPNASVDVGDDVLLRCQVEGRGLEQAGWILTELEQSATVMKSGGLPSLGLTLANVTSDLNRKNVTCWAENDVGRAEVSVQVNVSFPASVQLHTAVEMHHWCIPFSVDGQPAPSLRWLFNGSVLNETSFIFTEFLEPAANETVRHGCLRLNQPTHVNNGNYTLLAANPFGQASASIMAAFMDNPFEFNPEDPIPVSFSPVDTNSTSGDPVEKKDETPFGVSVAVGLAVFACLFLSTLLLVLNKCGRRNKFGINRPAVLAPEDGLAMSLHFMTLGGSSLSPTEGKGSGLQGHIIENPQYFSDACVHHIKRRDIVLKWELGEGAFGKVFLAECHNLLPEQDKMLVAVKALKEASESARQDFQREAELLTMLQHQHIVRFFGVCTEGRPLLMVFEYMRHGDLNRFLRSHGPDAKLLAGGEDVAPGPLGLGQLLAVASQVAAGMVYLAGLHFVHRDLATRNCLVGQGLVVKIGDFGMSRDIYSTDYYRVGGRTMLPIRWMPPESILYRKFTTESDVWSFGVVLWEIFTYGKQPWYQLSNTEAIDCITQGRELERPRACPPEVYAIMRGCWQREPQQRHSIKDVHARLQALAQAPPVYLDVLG

[9] = target: Tyrosine-protein kinase Lck (Homo sapiens, UniProt P06239); assay: Inhibition of LcK
Sequence of Tyrosine-protein kinase Lck (P06239 whole entry): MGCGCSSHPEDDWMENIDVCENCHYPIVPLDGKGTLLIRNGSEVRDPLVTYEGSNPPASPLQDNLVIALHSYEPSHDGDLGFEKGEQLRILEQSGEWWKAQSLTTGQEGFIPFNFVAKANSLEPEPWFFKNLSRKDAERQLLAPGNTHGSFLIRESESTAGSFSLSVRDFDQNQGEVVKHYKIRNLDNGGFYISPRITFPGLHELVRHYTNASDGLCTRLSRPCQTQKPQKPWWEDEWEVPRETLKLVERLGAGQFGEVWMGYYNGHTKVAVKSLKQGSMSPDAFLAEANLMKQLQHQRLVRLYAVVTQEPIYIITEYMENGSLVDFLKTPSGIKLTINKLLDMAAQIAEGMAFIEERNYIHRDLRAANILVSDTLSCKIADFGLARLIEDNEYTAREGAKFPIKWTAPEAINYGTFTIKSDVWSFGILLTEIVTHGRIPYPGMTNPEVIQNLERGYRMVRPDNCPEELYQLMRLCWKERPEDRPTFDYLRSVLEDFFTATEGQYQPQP

[10] = target: Insulin receptor (Homo sapiens, UniProt P06213); assay: Inhibition of InsR
Sequence of Insulin receptor (P06213 28-758 limits assumed): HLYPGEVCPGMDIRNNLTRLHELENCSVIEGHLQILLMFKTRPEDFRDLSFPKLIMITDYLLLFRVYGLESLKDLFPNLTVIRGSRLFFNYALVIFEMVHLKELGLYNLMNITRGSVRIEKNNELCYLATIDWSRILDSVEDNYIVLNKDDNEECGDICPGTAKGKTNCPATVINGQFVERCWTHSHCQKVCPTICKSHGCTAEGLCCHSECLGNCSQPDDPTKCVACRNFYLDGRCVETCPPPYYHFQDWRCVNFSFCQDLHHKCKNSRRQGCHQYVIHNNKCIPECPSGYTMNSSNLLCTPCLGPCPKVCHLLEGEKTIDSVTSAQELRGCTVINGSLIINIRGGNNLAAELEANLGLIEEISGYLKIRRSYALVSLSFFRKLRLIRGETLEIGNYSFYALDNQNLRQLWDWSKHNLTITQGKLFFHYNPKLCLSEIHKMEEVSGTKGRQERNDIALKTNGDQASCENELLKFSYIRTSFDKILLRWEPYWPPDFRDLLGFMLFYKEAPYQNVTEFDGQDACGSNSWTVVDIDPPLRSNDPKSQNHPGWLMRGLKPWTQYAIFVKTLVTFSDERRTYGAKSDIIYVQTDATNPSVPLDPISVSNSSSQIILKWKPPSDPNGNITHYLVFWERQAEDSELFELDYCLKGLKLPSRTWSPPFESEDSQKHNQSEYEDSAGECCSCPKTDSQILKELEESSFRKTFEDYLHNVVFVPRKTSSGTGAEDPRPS
Sequence of Insulin receptor (P06213 763-1382 limits assumed): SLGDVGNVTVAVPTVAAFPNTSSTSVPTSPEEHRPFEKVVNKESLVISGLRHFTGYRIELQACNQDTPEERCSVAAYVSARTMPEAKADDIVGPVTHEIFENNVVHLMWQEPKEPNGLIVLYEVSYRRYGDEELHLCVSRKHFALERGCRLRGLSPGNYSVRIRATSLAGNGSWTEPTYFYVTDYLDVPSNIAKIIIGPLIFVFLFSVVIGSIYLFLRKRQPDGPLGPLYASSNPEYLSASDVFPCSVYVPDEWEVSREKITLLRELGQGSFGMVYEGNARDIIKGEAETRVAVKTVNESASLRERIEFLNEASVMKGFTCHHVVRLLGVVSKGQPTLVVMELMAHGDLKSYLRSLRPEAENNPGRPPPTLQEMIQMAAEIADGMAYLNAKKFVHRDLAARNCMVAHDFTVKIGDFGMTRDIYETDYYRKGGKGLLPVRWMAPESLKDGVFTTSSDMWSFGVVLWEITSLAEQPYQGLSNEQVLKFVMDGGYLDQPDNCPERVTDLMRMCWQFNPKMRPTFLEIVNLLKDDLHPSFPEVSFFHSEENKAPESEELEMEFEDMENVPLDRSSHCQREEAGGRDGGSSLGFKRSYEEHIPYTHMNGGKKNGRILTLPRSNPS

[11] = target: MAP kinase-activated protein kinase 2 (Homo sapiens, UniProt P49137); assay: Inhibition of MK2
Sequence of MAP kinase-activated protein kinase 2 (P49137 whole entry): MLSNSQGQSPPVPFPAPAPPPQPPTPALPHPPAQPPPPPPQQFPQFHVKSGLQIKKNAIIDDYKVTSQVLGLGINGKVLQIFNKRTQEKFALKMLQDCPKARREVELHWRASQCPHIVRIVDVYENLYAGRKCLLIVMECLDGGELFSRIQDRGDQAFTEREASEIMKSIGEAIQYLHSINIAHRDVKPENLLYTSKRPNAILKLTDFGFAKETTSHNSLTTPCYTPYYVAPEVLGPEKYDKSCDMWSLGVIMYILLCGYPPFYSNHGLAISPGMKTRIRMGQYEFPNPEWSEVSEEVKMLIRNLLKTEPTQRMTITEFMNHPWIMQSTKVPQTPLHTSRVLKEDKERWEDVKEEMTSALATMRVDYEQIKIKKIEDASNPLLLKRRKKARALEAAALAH

[12] = Inhibition of CDK2E
[13] = target: Protein kinase C alpha type (Homo sapiens, UniProt P17252); assay: Inhibition of PKCalpha

Row | Structure (SMILES) | pIC50 [1] | further results
1 | Nc1cc(Oc2ccc(Nc3ncccc3C(=O)Nc3ccc(Cl)cc3)cc2F)ccn1 | 5.94 | –
2 | Nc1cc(Oc2ccc(Nc3ncc(Br)cc3C(=O)Nc3ccc(F)cc3F)cc2F)ccn1 | 6.23 | –
3 | O=C(Nc1ccc(F)cc1F)c1nccnc1Nc1ccc(Oc2ccnc3[nH]ccc23)c(F)c1 | 5.15 | –
4 | CSc1ncc(C(=O)Nc2ccc(F)cc2F)c(Nc2ccc(Oc3ccnc(N)c3)c(F)c2)n1 | 6.36 | –
5 | O=C(Nc1ccccc1Cl)c1cccnc1Nc1ccc(Oc2ccnc3[nH]ccc23)c(F)c1 | 5.92 | –
6 | O=C(Nc1ccccc1CCO)c1cccnc1Nc1ccc(Oc2ccnc3[nH]ccc23)c(F)c1 | 6.40 | –
7 | O=C(Nc1ccc(F)cc1F)c1cc(Br)cnc1Nc1ccc(Oc2ccnc3[nH]ccc23)c(F)c1 | 6.19 | –
8 | Nc1cc(Oc2ccc(Nc3ncncc3C(=O)Nc3ccc(F)cc3F)cc2F)ccn1 | 5.71 | –
9 | CN(C)c1ncc(C(=O)Nc2ccc(F)cc2F)c(Nc2ccc(Oc3ccnc(N)c3)c(F)c2)n1 | < 5.00 | –
10 | Cc1ccc(C(=O)Nc2ccc(F)cc2F)c(Nc2ccc(Oc3ccnc4[nH]ccc34)c(F)c2)n1 | 5.62 | –
11 | Nc1cc(Oc2ccc(Nc3nccnc3C(=O)Nc3ccc(F)cc3F)cc2F)ccn1 | 5.56 | –
12 | O=C(Nc1ccc(F)cn1)c1cccnc1Nc1ccc(Oc2ccnc3[nH]ccc23)c(F)c1 | 6.57 | –
13 | O=C(Nc1ccc(F)cc1F)c1cnccc1Nc1ccc(Oc2ccnc3[nH]ccc23)c(F)c1 | < 5.00 | –
14 | O=C(Nc1ccccc1)c1cccnc1Nc1ccc(Oc2ccnc3[nH]ccc23)c(F)c1 | 6.34 | –
15 | O=C(Nc1ccc(F)cc1F)c1cccnc1Nc1ccc(Oc2ccnc3[nH]ccc23)c(F)c1 | 6.68 | pIC50 [2]: 8.15; Cmax [3]: 9.3 µM; AUC(0-t) at 8 h [4]: 42 µM·h; Activity [5]: Dose-dependent effect; Activity [6]: Active; pIC50 [7]: 6.92; pIC50 [8]: 6.46; pIC50 [9]: < 4.30; pIC50 [10]: < 4.30; pIC50 [11]: < 4.30; pIC50 [12]: < 4.30; pIC50 [13]: < 4.30
16 | Nc1cc(Oc2ccc(Nc3ncccc3C(=O)Nc3ccc(F)cc3F)cc2F)ccn1 | 6.05 | –
17 | CN(C(=O)c1cccnc1Nc1ccc(Oc2ccnc3[nH]ccc23)c(F)c1)c1ccc(F)cc1 | 5.25 | –
18 | Cc1ccccc1NC(=O)c1cccnc1Nc1ccc(Oc2ccnc3[nH]ccc23)c(F)c1 | 6.38 | –
